Here are results for twelve compounds from PMC6545544 (ACS Omega, 2019).

Where only a bound is given, the exact number is not on record here.

For experiment [1], the system named is HIV-1 protease with G48V. The settings on record: thermodynamic integration and MM-PBSA; cited from earlier work.
Experiment [2] has as its system PR bearing the single V82A mutation. To be noted: kinetic studies; cited from earlier work.
Another experiment addresses PR with G48V. To be noted: cited from earlier work.
Experiment [3] deals with PR^S17. The settings on record: PR^S17, flap twisting by G48V implicated; cited from earlier work.
The target in another experiment is PR with M46L. To be noted: cited from earlier work.
A further experiment has as its target PR with I54V. The settings on record: cited from earlier work.
The test system of experiment [4] is PR with 22 mutations in addition to inactivating D25N mutation. To be noted: PR with 22 mutations in addition to D25N; cited from earlier work.
Experiment [5] deals with PR^S17. To be noted: PR^S17, predicted from genotype–phenotype data; cited from earlier work.
Experiment [6] has as its system HIV-1 protease with G48V. To be noted: flap mutation G48V; cited from earlier work.
Another experiment addresses PR^V82A. To be noted: read-out: Inhibition constant (Ki), determined previously; cited from earlier work.
In experiment [7] the target is PR (wild-type HIV-1 protease). To be noted: read-out: Inhibition constant (Ki), determined previously; cited from earlier work.
For experiment [8], the target named is PR^S17 (HIV-1 protease variant with 17 mutations). Kind of experiment: Kinetic inhibition of PR^S17. In kind it is biochemical. To be noted: PR^S17 compared to PR.
Experiment [9] has as its target HIV-1 protease variant PR^S17 (HIV-1). Kind of experiment: enzyme inhibition kinetics.

As to `CC(C)CN(C[C@@H](O)[C@H](Cc1ccccc1)NC(=O)O[C@H]1CCOC1)S(=O)(=O)c1ccc(N)cc1` [APV, amprenavir], in the experiment on HIV-1 protease with G48V [1], the “effect of G48V on van der Waals interactions” value is on record as “strengthens van der Waals interactions”.
Consider `CC(C)CN(C[C@@H](O)[C@H](Cc1ccccc1)NC(=O)O[C@H]1CO[C@H]2OCC[C@H]21)S(=O)(=O)c1ccc(N)cc1` [DRV, darunavir], for which the “affinity of PR with V82A for inhibitor” value in [2] is listed as “significantly worse affinity”. Moreover, the “inhibition constant (Ki) relative to wild-type PR” value on PR with G48V, at PR with M46L and at PR with I54V was “worse inhibition constants” throughout. The “cross-resistance of PR^S17” value in the experiment on PR^S17 [3] is listed as “cross-resistance”. Besides, the “resistance (fold)” value in experiment [4] is over 175 fold.
For `COC(=O)N[C@H](C(=O)N[C@@H](Cc1ccccc1)[C@@H](O)CN(Cc1ccc(-c2ccccn2)cc1)NC(=O)[C@@H](NC(=O)OC)C(C)(C)C)C(C)(C)C` [atazanavir], the predicted resistance entry with PR^S17 [5] was “high-level resistance”.
Regarding `CC(C)(C)NC(=O)[C@@H]1CN(Cc2cccnc2)CCN1C[C@@H](O)C[C@@H](Cc1ccccc1)C(=O)N[C@H]1c2ccccc2C[C@H]1O` [indinavir], the predicted resistance result in the experiment with PR^S17 [5] is recorded as “high-level resistance”. In addition, in experiment [2], the “affinity of PR with V82A for inhibitor” value was “significantly worse affinity”.
Take `Cc1cccc(C)c1OCC(=O)N[C@@H](Cc1ccccc1)[C@@H](O)C[C@H](Cc1ccccc1)NC(=O)[C@H](C(C)C)N1CCCNC1=O` [lopinavir]: the predicted resistance entry with PR^S17 [5] was “high-level resistance”.
For the compound `Cc1c(O)cccc1C(=O)N[C@@H](CSc1ccccc1)[C@H](O)CN1C[C@H]2CCCC[C@H]2C[C@H]1C(=O)NC(C)(C)C` [nelfinavir], the predicted resistance result in the experiment on PR^S17 [5] is given as “high-level resistance”. Besides, in experiment [2], the “affinity of PR with V82A for inhibitor” value is listed as “significantly worse affinity”.
In the case of `CC(C)c1nc(CN(C)C(=O)N[C@H](C(=O)N[C@@H](Cc2ccccc2)C[C@H](O)[C@H](Cc2ccccc2)NC(=O)OCc2cncs2)C(C)C)cs1` [ritonavir], the predicted resistance entry in the experiment with PR^S17 [5] was “high-level resistance”. Besides, the “affinity of PR with V82A for inhibitor” value in experiment [2] was “significantly worse affinity”.
For `CC(C)(C)NC(=O)[C@@H]1C[C@@H]2CCCC[C@@H]2CN1C[C@@H](O)[C@H](Cc1ccccc1)NC(=O)[C@H](CC(N)=O)NC(=O)c1ccc2ccccc2n1` [saquinavir], the predicted resistance entry in the experiment with PR^S17 [5] is “high-level resistance”. Further, the “resistance conferred by G48V” value with HIV-1 protease with G48V [6] is recorded as “high level of resistance”. The “inhibition constant (Ki) relative to wild-type PR” value at PR with G48V, at PR with M46L and at PR with I54V was “worse inhibition constants” throughout.
Consider Ace-T-I-Nle-r-Nle-Q-R [p2-NC], for which the figures for the Ki (at PR^V82A; in [7]) were 530 nM and 2170 nM, respectively. Further, the “Ki relative to the wild-type PR (fold better inhibition)” value in experiment [8] was found to be 4.2.
Take R-V-L-r-F-E-A-Nle [CA-p2]: the Ki (usually a dissociation constant, usually derived from enzyme kinetics or from competition with a known ligand) on PR^V82A is 24 nM; in experiment [7], 75 nM.
For the compound “substrate analogue CA-p2 (R-V-L-r-F-E-A-Nle) (peptide)”, the Ki in [9] was determined as 22 nM.
On the same count and under the same terms, the same measure for “substrate analogue p2-NC (Ace-T-I-Nle-r-Nle-Q-R) (peptide)”: 514 nM.
